Results: DBAASP
In brackets after ≈: the same amount, converted by molar mass. Several values for one entry are separate records, joined by “and”; a condition that tells them apart may be missing. Identical values can stand only once. Each block holds one compound with its values, some of them ahead of it.

What was measured:
Test in all cases: ≥ marks a high value that may be exact or a test limit, other limits are often not marked, values filed in µg/mL are converted to µM
[1] = tested on: Escherichia coli ATCC 11303
Saccharomyces cerevisiae = tested on: Saccharomyces cerevisiae
[2] = tested on: Micrococcus luteus ATCC 4698
[3] = tested on: Proteus mirabilis ATCC 25933
Candida albicans = tested on: Candida albicans
Escherichia coli = tested on: Escherichia coli
[4] = tested on: Shigella dysenteriae ATCC 9752
[5] = tested on: Pseudomonas aeruginosa ATCC 9027
[6] = tested on: Salmonella enterica subsp. enterica serovar Typhimurium ATCC 14028
Pseudomonas putida = tested on: Pseudomonas putida
[7] = tested on: Staphylococcus epidermidis ATCC 12228
[8] = tested on: Klebsiella pneumoniae ATCC 10031
Serratia marcescens = tested on: Serratia marcescens
[9] = tested on: Bacillus subtilis KCTC 1021
[10] = tested on: Candida parapsilosis ATCC 22019
[11] = tested on: Staphylococcus aureus ATCC 25923
Staphylococcus aureus 10 = tested on: Staphylococcus aureus 10
Escherichia coli 37 = tested on: Escherichia coli 37
[12] = tested on: Enterobacter cloacae ATCC 13047
Shigella dysenteriae = tested on: Shigella dysenteriae
[13] = tested on: Klebsiella pneumoniae ATCC 700603
[14] = tested on: Candida albicans ATCC 90028
[15] = tested on: Enterococcus faecalis ATCC 29212
Staphylococcus aureus 37 = tested on: Staphylococcus aureus 37
[16] = tested on: Pseudomonas aeruginosa ATCC 27853
Pseudomonas aeruginosa = tested on: Pseudomonas aeruginosa
Escherichia coli 218 = tested on: Escherichia coli 218
[17] = tested on: Candida albicans ATCC 2002
[18] = tested on: Escherichia coli KCTC 1682
[19] = tested on: Listeria monocytogenes KCTC 3710
[20] = tested on: Pseudomonas aeruginosa KCTC 1637
[21] = tested on: Trichosporon beigelii KCTC 7707
[22] = tested on: Staphylococcus aureus KCTC 1621
[23] = tested on: Salmonella typhimurium KCTC 1926
[24] = tested on: Bacillus subtilis KCTC 1918
[25] = tested on: Escherichia coli ATCC 25922
[26] = tested on: Klebsiella pneumoniae ST258
[27] = tested on: Mycobacterium tuberculosis
[28] = tested on: Mycobacterium tuberculosis H37Rv
[29] = tested on: Clavibacter michiganensis subsp. michiganensis KACC 20122

SMILES: CC(C)C[C@H](NC(=O)CNC(=O)CN)C(=O)N[C@@H](CCCCN)C(=O)N[C@@H](CCCCN)C(=O)N[C@@H](CC(C)C)C(=O)NCC(=O)N[C@@H](CCCCN)C(=O)N[C@@H](CCCCN)C(=O)N[C@@H](CC(C)C)C(=O)N[C@@H](CCC(=O)O)C(=O)NCC(=O)N[C@@H](C)C(=O)NCC(=O)N[C@@H](CCCCN)C(=O)N[C@@H](CCCN=C(N)N)C(=O)N[C@H](C(=O)N[C@@H](Cc1ccccc1)C(=O)N[C@@H](CC(N)=O)C(=O)N[C@@H](C)C(=O)N[C@@H](C)C(=O)N[C@@H](CCC(=O)O)C(=O)N[C@@H](CCCCN)C(=O)N[C@@H](C)C(=O)N[C@@H](CC(C)C)C(=O)N1CCC[C@H]1C(=O)O)C(C)C [GGLKKLGKKLEGAGKRVFNAAEKALP]
MIC [1]: 11 µM (≈ 29.6 µg/mL)

SMILES: CC[C@H](C)[C@H](NC(=O)CN)C(=O)N[C@@H](CCSC)C(=O)N[C@@H](CO)C(=O)N[C@H](C(=O)N[C@H](C(=O)N[C@@H](CCCCN)C(=O)N[C@@H](CC(=O)O)C(=O)N[C@H](C(=O)N[C@@H](C)C(=O)N[C@@H](CCCCN)C(=O)N[C@@H](CC(N)=O)C(=O)N[C@@H](C)C(=O)N[C@@H](C)C(=O)N[C@@H](CCCCN)C(=O)N[C@@H](CCC(=O)O)C(=O)N[C@@H](C)C(=O)N[C@@H](C)C(=O)N[C@@H](CCCCN)C(=O)NCC(=O)N[C@@H](C)C(=O)N[C@@H](CC(C)C)C(=O)N[C@@H](CO)C(=O)N[C@H](C(=O)N[C@@H](CC(C)C)C(=O)N[C@@H](CO)C(=O)N[C@H]1CSSC[C@@H](C(=O)O)NC(=O)[C@H]([C@@H](C)O)NC(=O)[C@H](CCCCN)NC(=O)[C@H](C)NC(=O)[C@H](CC(C)C)NC(=O)[C@H](CCCCN)NC1=O)[C@@H](C)O)C(C)C)C(C)C)[C@@H](C)CC [GIMSIVKDVAKNAAKEAAKGALSTLSCKLAKTC]
MIC (Saccharomyces cerevisiae): ≥ 45.2 µM
MIC [2]: 0.753 µM (≈ 2.5 µg/mL)
MIC [3]: ≥ 60.2 µM
MIC (Candida albicans): 45.2 µM (≈ 150 µg/mL)
MIC (Escherichia coli): 22.6 µM (≈ 75 µg/mL)
MIC [4]: 7.53 µM (≈ 25 µg/mL)
MIC [5]: 15.1 µM (≈ 50 µg/mL)
MIC [6]: 45.2 µM (≈ 150 µg/mL)
MIC (Pseudomonas putida): 15.1 µM (≈ 50 µg/mL)
MIC [7]: 3.01 µM (≈ 9.99 µg/mL)
MIC [8]: 7.53 µM (≈ 25 µg/mL)
MIC (Serratia marcescens): ≥ 60.2 µM
MIC [9]: 3.01 µM (≈ 9.99 µg/mL)

SMILES: CC[C@H](C)[C@H](NC(=O)[C@H](CCCCN)NC(=O)[C@H](CCCCN)NC(=O)[C@H](Cc1ccccc1)NC(=O)[C@H](CC(C)C)NC(=O)[C@H](CCCCN)NC(=O)[C@H](CCCCN)NC(=O)[C@H](CC(C)C)NC(=O)[C@H](CCCCN)NC(=O)[C@H](CCCCN)NC(=O)[C@@H](N)Cc1ccccc1)C(=O)N[C@@H](CC(C)C)C(=O)N[C@@H](CCCCN)C(=O)N[C@@H](CC(C)C)C(=O)N[C@@H](CCCCN)C(N)=O [FKKLKKLFKKILKLK]
MIC [18]: 8 µM (≈ 15.2 µg/mL)
MIC [19]: 4 µM and 8 µM
MIC [20]: 2 µM (≈ 3.81 µg/mL)
MIC [21]: 1 µM and 2 µM
MIC [22]: 8 µM and 16 µM
MIC [23]: 1 µM and 2 µM
MIC [24]: 8 µM and 16 µM

SMILES: CC[C@H](C)[C@H](NC(=O)[C@H](CC(C)C)NC(=O)[C@H](CCCCN)NC(=O)[C@H](CC(C)C)NC(=O)[C@H](C)NC(=O)CNC(=O)[C@H](CCCCN)NC(=O)[C@H](C)NC(=O)[C@H](CC(C)C)NC(=O)[C@H](C)NC(=O)CNC(=O)[C@H](Cc1c[nH]c2ccccc12)NC(=O)[C@@H](N)Cc1ccccc1)C(=O)NCC(=O)N[C@@H](CO)C(=O)N[C@@H](CC(C)C)C(=O)N[C@@H](Cc1ccccc1)C(=O)N[C@@H](CO)C(=O)N[C@@H](CO)C(=O)N[C@@H](Cc1ccccc1)C(=O)N[C@@H](CO)C(=O)N[C@@H](CCCCN)C(=O)N[C@@H](CCCCN)C(=O)N[C@@H](CC(=O)O)C(=O)O [FWGALAKGALKLIGSLFSSFSKKD]
MIC [11]: 12.5 µM (≈ 32.2 µg/mL)
MIC [25]: 12.5 µM (≈ 32.2 µg/mL)
MIC [26]: 19.4 µM (≈ 50 µg/mL)
MIC [27]: 18.7 µM (≈ 48.1 µg/mL)
MIC [16]: > 19.4 µM
MIC [28]: 18.7 µM (≈ 48.1 µg/mL)

The remaining lines, values ahead:

MIC [10]: 26.5 µM (≈ 40 µg/mL)
MIC [11]: 13.3 µM (≈ 20 µg/mL)
MIC (Staphylococcus aureus 10): ≥ 53.1 µM
MIC (Escherichia coli 37): 26.5 µM (≈ 40 µg/mL)
MIC [12]: ≥ 53.1 µM
MIC (Shigella dysenteriae): 13.3 µM (≈ 20 µg/mL)
MIC [13]: 26.5 µM (≈ 40 µg/mL)
MIC [14]: ≥ 53.1 µM
MIC [15]: 53.1 µM (≈ 80 µg/mL)
MIC (Staphylococcus aureus 37): 13.3 µM (≈ 20 µg/mL)
MIC [16]: 26.5 µM (≈ 40 µg/mL)
MIC (Pseudomonas aeruginosa): 26.5 µM (≈ 40 µg/mL)
MIC (Escherichia coli 218): ≥ 53.1 µM
MIC [17]: ≥ 53.1 µM
SMILES: CC[C@H](C)[C@H](N)C(=O)N[C@@H](CC(N)=O)C(=O)N[C@@H](CC(C)C)C(=O)N[C@@H](CCCCN)C(=O)N[C@@H](C)C(=O)N[C@H](C(=O)N[C@@H](C)C(=O)N[C@@H](C)C(=O)N[C@@H](CC(C)C)C(=O)N[C@H](C(=O)N[C@@H](CCCCN)C(=O)N[C@@H](CCCCN)C(=O)N[C@@H](CC(C)C)C(=O)N[C@@H](CC(C)C)C(=O)O)C(C)C)[C@@H](C)CC [INLKAIAALVKKLL]

MIC [29]: 12.5 µM and 25 µM and 18.8 µM
SMILES: NCCCC[C@H](N)C(=O)N[C@@H](Cc1c[nH]c2ccccc12)C(=O)N[C@@H](Cc1c[nH]c2ccccc12)C(=O)N[C@@H](Cc1c[nH]c2ccccc12)C(=O)N[C@@H](CCCN=C(N)N)C(=O)N[C@@H](Cc1c[nH]c2ccccc12)C(N)=O [KWWWRW]
